Consider 14 compounds from patent US6093730A, “Substituted isoquinoline-3-carboxamides, their preparation and their use as pharmaceuticals” (Hoechst Marion Roussel Deutschland GmbH, priority 1997, dated 2000).

One assay deals with T1, prolyl-4-hydroxylase (Gallus gallus, UniProt P16924).
T1 sequence (P16924 1-516): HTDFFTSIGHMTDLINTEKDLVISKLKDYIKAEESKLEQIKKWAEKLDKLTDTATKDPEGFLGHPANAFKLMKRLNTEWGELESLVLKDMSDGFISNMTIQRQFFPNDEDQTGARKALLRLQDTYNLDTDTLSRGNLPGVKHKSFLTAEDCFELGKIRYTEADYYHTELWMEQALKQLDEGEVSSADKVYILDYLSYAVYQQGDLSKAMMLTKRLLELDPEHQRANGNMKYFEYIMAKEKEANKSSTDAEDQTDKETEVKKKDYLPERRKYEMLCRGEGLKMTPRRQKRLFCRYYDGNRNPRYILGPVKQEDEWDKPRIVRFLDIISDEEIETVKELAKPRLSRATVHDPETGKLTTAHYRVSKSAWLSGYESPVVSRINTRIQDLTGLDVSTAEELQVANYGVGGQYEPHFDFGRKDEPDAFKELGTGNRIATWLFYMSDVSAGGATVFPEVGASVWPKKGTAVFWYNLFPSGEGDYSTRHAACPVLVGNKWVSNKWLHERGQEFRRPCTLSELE
T1 sequence (P09102 23-515 partner): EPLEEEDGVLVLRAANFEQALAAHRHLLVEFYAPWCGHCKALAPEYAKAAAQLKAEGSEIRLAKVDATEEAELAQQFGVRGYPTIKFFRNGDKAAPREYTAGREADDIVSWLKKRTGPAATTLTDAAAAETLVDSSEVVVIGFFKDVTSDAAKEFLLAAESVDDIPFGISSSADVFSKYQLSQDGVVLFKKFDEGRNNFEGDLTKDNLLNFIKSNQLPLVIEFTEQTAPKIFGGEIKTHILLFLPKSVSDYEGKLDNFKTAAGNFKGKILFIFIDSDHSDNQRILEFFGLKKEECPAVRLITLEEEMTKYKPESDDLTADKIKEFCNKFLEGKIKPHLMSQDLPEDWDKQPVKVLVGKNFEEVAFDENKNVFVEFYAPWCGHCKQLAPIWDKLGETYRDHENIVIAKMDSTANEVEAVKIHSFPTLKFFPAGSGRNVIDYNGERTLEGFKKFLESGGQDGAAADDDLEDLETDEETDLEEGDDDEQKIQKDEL
The experiment in a line: Inhibition of prolyl-4-hydroxylase (Table I). The assay is classed as biochemical. The conditions noted are these: Table I; read-out: IC50. The protocol: The inhibition of this enzyme was determined as described by Kaule and Gunzler, ANAL. BIOCHEM.
A word on the IC50: it is the concentration needed to halve the response being measured. As for `CC(C)Oc1ccc2c(O)c(C(=O)NCC(=O)O)nc(Cl)c2c1` [Example 1, N-((1-Chloro-4-hydroxy-7-(2-propyloxy)isoquinolin-3-yl)carbonyl)glycine], the IC50 stood at 120 nM. The same measure, in the same setting: in the case of `CC(C)Oc1ccc2c(Cl)nc(C(=O)NCC(=O)O)c(O)c2c1` [Example 2, N-((1-Chloro-4-hydroxy-6-(2-propyloxy)isoquinolin-3-yl)carbonyl)glycine] it was 1900 nM; in that of `COc1ccc2c(O)c(C(=O)NCC(=O)O)nc(Cl)c2c1` [Example 3, N-((1-Chloro-4-hydroxy-7-methoxyisoquinolin-3-yl)carbonyl)glycine], 790 nM. Same read-out and setting: in the case of `COc1ccc2c(Cl)nc(C(=O)NCC(=O)O)c(O)c2c1` [Example 4, N-((1-Chloro-4-hydroxy-6-methoxyisoquinolin-3-yl)carbonyl)glycine] it was 570 nM. Same read-out and setting: in the case of `CCCCOc1ccc2c(O)c(C(=O)NCC(=O)O)nc(Cl)c2c1` [Example 5, N-((7-(1-Butyloxy)-1-chloro-4-hydroxyisoquinolin-3-yl)carbonyl)glycine] it was 700 nM. In the case of `CCCCOc1ccc2c(Cl)nc(C(=O)NCC(=O)O)c(O)c2c1` [Example 6, N-(-6-(1-Butyloxy-1-chloro-4-hydroxyisoquinolin-3-yl)carbonyl)glycine], the IC50 came to 2020 nM.

In the case of `O=C(O)CNC(=O)c1nc(Cl)c2ccc(OCc3ccccc3)cc2c1O` [Example 7, N-((6-Benzyloxy-1-chloro-4-hydroxyisoquinolin-3-yl)carbonyl)glycine], the IC50 was found to be 1340 nM. `O=C(O)CNC(=O)c1nc(Cl)c2cc(OCc3ccccc3)ccc2c1O` [Example 8, N-((7-Benzyloxy-1-chloro-4-hydroxyisoquinolin-3-yl)carbonyl)glycine]: the IC50 was found to be 620 nM. On the same count and under the same terms, in the case of `O=C(O)CNC(=O)c1nc(Cl)c2cc(Cl)c(Cl)cc2c1O` [Example 10, N-((1,6,7-Trichloro-4-hydroxyisoquinolin-3-yl)carbonyl)glycine] it was 3600 nM.

Regarding `O=C(O)CNC(=O)c1ncc2c(Cl)cccc2c1O` [Example 11, N-((8-Chloro-4-hydroxyisoquinolin-3-yl)carbonyl)glycine], the 50% inhibitory concentration (IC50) turned out to be 660 nM.

Take `COc1cccc2c(O)c(C(=O)NCC(=O)O)ncc12` [Example 12, N-((4-Hydroxy-8-methoxyisoquinolin-3-yl)carbonyl)glycine]: the IC50 is 650 nM. On the same count and under the same terms, in the case of `CCCCOc1ccc2c(O)c(C(=O)NCC(=O)O)ncc2c1` [Example 13, N-((7-(1-Butyloxy)-4-hydroxyisoquinolin-3-yl)carbonyl)glycine] it was 9300 nM. Same read-out and setting: in the case of `CCCCOc1ccc2cnc(C(=O)NCC(=O)O)c(O)c2c1` [Example 14, N-((6-(1-Butyloxy)-4-hydroxyisoquinolin-3-yl)carbonyl)glycine] it was 350 nM. On to `CC(C)Oc1ccc2c(O)c(C(=O)NCC(=O)O)ncc2c1` [Example 15, N-((4-Hydroxy-7-(2-propyloxy)isoquinolin-3-yl)carbonyl)glycine], for which the IC50 was 660 nM.

A further assay has as its system hydroxyproline formation. The experiment in a line: Carbon tetrachloride-induced liver fibrosis model in rats, inhibition of hydroxyproline formation. The conditions noted are these: 20 mg/kg (total), intraperitoneal twice per day, two weeks with CCl4. The assay is classed as in vivo, rat. The protocol: The antifibrotic action was determined in the model of carbon tetrachloride-induced liver fibrosis. For this, rats were treated twice weekly with CCl4 (1 ml/kg) dissolved in olive oil. The test substance was administered daily, if appropriate even twice daily, orally or intraperitoneally dissolved in a suitable compatible solvent. The extent of the liver fibrosis was determined histologically and the proportion of collagen in the liver was analyzed by hydroxyproline determination as described in Kivirikko et al., ANAL. BIOCHEM. […] The fibrogenesis activity was determined by radioimmunological determination of collagen fragments and procollagen peptides in the serum.
The measurement of the inhibition of hydroxyproline formation by the test substances was based on this level.
Here the experimental animals were treated for two weeks only with carbon tetrachloride, then for the next two weeks with carbon tetrachloride and test substance. The test substances were administered intraperitoneally twice per day in the total amount indicated below in Table II,
Turning to `CC(C)Oc1ccc2c(O)c(C(=O)NCC(=O)O)nc(Cl)c2c1` [Example 1, N-((1-Chloro-4-hydroxy-7-(2-propyloxy)isoquinolin-3-yl)carbonyl)glycine], the “Change in hydroxyproline formation” value is listed as -55%.
